In experiment [1] the target is smooth muscle angiotensin II receptor. Briefly: Assay A: Angiotensin II Binding Activity (125I-angiotensin II displacement, rat uterine membrane preparation). The note with it: 50% displacement of specifically bound 125I-AII, rat uterine membranes, 25° C., 60 min. As to the method: Assay A: Angiotensin II Binding Activity
Compounds of the invention were tested for ability to bind to the smooth muscle angiotensin II receptor using a rat uterine membrane preparation. […] Other chemicals were obtained from Sigma Chemical Co. This assay was carried out according to the method of Douglas et al [Endocrinology, 106, 120-124 (1980)]. Rat uterine membranes were prepared from fresh tissue. All procedures were carried out at 4° C. Uteri were stripped of fat and homogenized in phosphate-buffered saline at pH 7.4 containing 5 mM EDTA. The homogenate was centrifuged at 1500×g for 20 min., and the supernatant was recentrifuged at 100,000×g for 60 min. The pellet was resuspended in buffer consisting of 2 mM EDTA and 50 mM Tris-HCl (pH 7.5) to a final protein concentration of 4 mg/ml. Assay tubes were charged with 0.25 ml of a solution containing 5 mM MgCl2, 2 mM EDTA, 0.5% bovine serum albumin, 50 mM Tris-HCl, pH 7.5 and […] (approximately 10^5 cpm) in the absence or in the presence of unlabelled ligand. The reaction was initiated by the addition of membrane protein and the mixture was incubated at 25° C. for 60 min. The incubation was terminated with ice-cold 50 mM Tris-HCl (pH 7.5) and the mixture was filtered to separate membrane-bound labelled peptide from the free ligand. The incubation tube and filter were washed with ice-cold buffer. Filters were assayed for radioactivity in a Micromedic gamma counter. Nonspecific binding was defined as binding in the presence of 10 μM of unlabelled AII. Specific binding was calculated as total binding minus nonspecific binding. […] Binding data were analyzed by a nonlinear least-squares curve fitting program.

A further experiment concerns rabbit aortic rings. Briefly: Assay B: In Vitro Vascular Smooth Muscle Response for AII (antagonist activity in rabbit aortic rings). The note with it: Oryctolagus cuniculus, test antagonist at 10^-5 M, AII contraction, read-out: Assay B pA2 (converted). It is filed as cell-based. As to the method: Assay B: In Vitro Vascular Smooth Muscle-Response for AII
The compounds of the invention were tested for antagonist activity in rabbit aortic rings. Male New Zealand white rabbits (2-2.5 kg) were sacrificed using an overdose of pentobarbital and exsanguinated via the carotid arteries. The thoracic aorta was removed, cleaned of adherent fat and connective tissue and then cut into 3-mm ring segments. The endothelium was removed from the rings by gently sliding a rolled-up piece of filter paper into the vessel lumen. The rings were then mounted in a water-jacketed tissue bath, maintained at 37° C., between moveable and fixed ends of a stainless steel wire with the moveable end attached to an FT03 Grass transducer coupled to a Model 7D Grass Polygraph for recording isometric force responses. The bath was filled with 20 ml of oxygenated (95% oxygen/5% carbon dioxide) Krebs solution of the following composition (mM): 130 NaCl, 15 NaHCO3, […], 1.2 NaH2PO4, 1.2 MgSO4, 2.5 CaCl2, and 11.4 glucose. The preparations were equilibrated for one hour before approximately one gram of passive tension was placed on the rings. Angiotensin II concentration-response curves were then recorded (3×10^−10 to 1×10^−5 M). Each concentration of AII was allowed to elicit its maximal contraction, and then AII was washed out repeatedly for 30 minutes before rechallenging with a higher concentration of AII. Aorta rings were exposed to the test antagonist at 10^−5 M for 5 minutes before challenging with AII. Adjacent segments of the same aorta ring were used for all concentration-response curves in the presence or absence of the test antagonist. The effectiveness of the test compound was expressed in terms of pA2 values and were calculated according to H. O. Schild [Br. J. Pharmacol. Chemother., 2,189-206 (1947)]. The PA2 value is the concentration of the antagonist which increases the EC50 value for AII by a factor of two. Each test antagonist was evaluated in aorta rings from two rabbits.

For a further experiment, the system named is pressor response to AII. Briefly: Assay C: In Vivo Intragastric Pressor Assay Response for AII Antagonists. The arrangement: species or system rat. The note with it: for Assay C Duration: Dose: 3 mg/kg (i.g.), Sprague-Dawley rats, AII challenges up to 180 minutes after gavage; for inhibition in vivo at 3 mg/kg: Rattus norvegicus, po. As to the method:
Assay C: In Vivo Intragastric Pressor Assay Response for AII Antagonists
Male Sprague-Dawley rats weighing 225-300 grams were anesthetized with methohexital (30 mg/kg, i.p.) and catheters were implanted into the femoral artery and vein. The catheters were tunneled subcutaneously to exit dorsally, posterior to the head and between the scapulae. The catheters were filled with heparin (1000 units/ml of saline). The rats were returned to their cage and allowed regular rat chow and water ad libitum. After full recovery from surgery (3-4 days), rats were placed in Lucite holders and the arterial line was connected to a pressure transducer. Arterial pressure was recorded on a Gould polygraph (mmHg). Angiotensin II was administered as a 30 ng/kg bolus via the venous catheter delivered in a 50 μl volume with a 0.2 ml saline flush. The pressor response in mm Hg was measured by the difference from pre-injection arterial pressure to the maximum pressure achieved. The AII injection was repeated every 10 minutes until three consecutive injections yielded responses within 4 mmHg of each other. These three responses were then averaged and represented the control response to AII. The test compound was suspended in 0.5% methylcellulose in water and was administered by gavage. The volume administered was 2 ml/kg body weight. The standard dose was 3 mg/kg. Angiotensin II bolus injections were given at 30, 45, 60, 75, 120, 150, and 180 minutes after gavage. The pressor response to AII was measured at each time point. The rats were then returned to their cage for future testing. A minimum of 3 days was allowed between tests. Percent inhibition was calculated for each time point following gavage by the following formula: [(Control Response−Response at time point)/Control Response]×100.

[2] abbreviates: first value of the pair (aorta rings from two rabbits).
The mark [3] stands for this setting: second value of the pair (aorta rings from two rabbits).

Structures are written as SMILES. Read-outs that look alike come from different tables or passages of the source.

Broadly, the IC50 is the concentration that gives 50% inhibition. Higher therefore signals weaker potency. The compound `CCCCc1cn(-c2ccccc2C(C)C)c(=O)n1Cc1ccc(-c2ccccc2-c2nnn[nH]2)nc1` [Example 35, 1-(2-isopropylphenyl)-4-butyl-1,3-dihydro-3-[[6-[2-(1H-tetrazol-5-yl)phenyl]-3-pyridinyl]methyl]-2H-imidazol-2-one] had an IC50 in experiment [1] of 14 nM.

In turn, `CCCn1cc(CC(C)C)n(Cc2ccc(-c3ccccc3-c3nnn[nH]3)nc2)c1=O` [Example 3, 1-propyl-4-isobutyl-1,3-dihydro-3-[[6-[2-(1H-tetrazol-5-yl)phenyl]-3-pyridinyl]methyl]-2H-imidazol-2-one] yielded an IC50 in experiment [1] of 770 nM. Also, the Kb in the experiment on rabbit aortic rings (setting [2]) was 34.7 nM; in the experiment with rabbit aortic rings (setting [3]) it was 112 nM.

As a reminder, the inhibition in vivo is the drop in the measured response relative to a control, in per cent. Read a low inhibition in vivo as little suppression. The compound `CCCCc1cn(CCC2CCCC2)c(=O)n1Cc1ccc(-c2ccccc2-c2nnn[nH]2)nc1` [Example 27, 1-(2-cyclopentylethyl)-4-butyl-1,3-dihydro-3-[[6-[2-(1H-tetrazol-5-yl)phenyl]-3-pyridinyl]methyl]-2H-imidazol-2-one] displayed an IC50 in experiment [1] of 18 nM. For the same compound, in the experiment with rabbit aortic rings (setting [2]), the Kb was 1.82 nM. In addition, the Kb with rabbit aortic rings (setting [3]) is 2.14 nM. Moreover, in the experiment on pressor response to AII, the “Assay C Duration” value was more than 180 min and 3 mg/kg produced 35% inhibition in vivo.

On to `CCCc1cn(CCC)c(=O)n1Cc1ccc(-c2ccccc2-c2nnn[nH]2)nc1` [Example 2, 1,4-dipropyl-1,3-dihydro-3-[[6-[2-(1H-tetrazol-5-yl)phenyl]-3-pyridinyl]methyl]-2H-imidazol-2-one], for which the concentration for half-maximal inhibition (IC50) in experiment [1] was found to be 38 nM. The Kb in the experiment with rabbit aortic rings (setting [2]) was 7.41 nM; in the experiment on rabbit aortic rings (setting [3]), 39.8 nM. Besides, the “Assay C Duration” value in the experiment on pressor response to AII turned out to be 180 min. In addition, in the experiment on pressor response to AII, the inhibition in vivo at 3 mg/kg is 25%.

In experiment [1], `CCCCc1cn(C23CC4CC(CC(C4)C2)C3)c(=O)n1Cc1ccc(-c2ccccc2-c2nnn[nH]2)nc1` [Example 30, 1-(1-adamantyl)-4-butyl-1,3-dihydro-3-[[6-[2-(1H-tetrazol-5-yl)phenyl]-3-pyridinyl]methyl]-2H-imidazol-2-one] came in with an IC50 of 65 nM.

Turning to `CCCCc1cn(C2C3CC4CC(C3)CC2C4)c(=O)n1Cc1ccc(-c2ccccc2-c2nnn[nH]2)nc1` (stereo not shown) [Example 29, 1-(2-adamantyl)-4-butyl-1,3-dihydro-3-[[6-[2-(1H-tetrazol-5-yl)phenyl]-3-pyridinyl]methyl]-2H-imidazol-2-one], the IC50 in experiment [1] is 51 nM.

In the case of `CCCCn1cc(CCC(C)C)n(Cc2ccc(-c3ccccc3-c3nnn[nH]3)nc2)c1=O` [Example 5, 1-butyl-4-isopentyl-1,3-dihydro-3-[[6-[2-(1H-tetrazol-5-yl)phenyl]-3-pyridinyl]methyl]-2H-imidazol-2-one], the IC50 in experiment [1] came out at 29 nM. Besides, the Kb is 2.29 nM with rabbit aortic rings (setting [2]) and 5.89 nM in the experiment on rabbit aortic rings (setting [3]).

The compound `CCCCc1cn(-c2ccccc2)c(=O)n1Cc1ccc(-c2ccccc2-c2nnn[nH]2)nc1` [Example 31, 1-phenyl-4-butyl-1,3-dihydro-3-[[6-[2-(1H-tetrazol-5-yl)phenyl]-3-pyridinyl]methyl]-2H-imidazol-2-one] had an IC50 in experiment [1] of 45 nM.

In turn, `CCCCc1cn(-c2ccccc2C)c(=O)n1Cc1ccc(-c2ccccc2-c2nnn[nH]2)nc1` [Example 33, 1-(2-methylphenyl)-4-butyl-1,3-dihydro-3-[[6-[2-(1H-tetrazol-5-yl)phenyl]-3-pyridinyl]methyl]-2H-imidazol-2-one] registered an IC50 in experiment [1] of 9.4 nM. Besides, in the experiment on pressor response to AII, the “Assay C Duration” value is more than 180 min and the inhibition in vivo at 3 mg/kg stood at 65%.

Compound `CCCCc1cn(C2CCCC2)c(=O)n1Cc1ccc(-c2ccccc2-c2nnn[nH]2)nc1` [Example 23, 1-cyclopentyl-4-butyl-1,3-dihydro-3-[[6-[2-(1H-tetrazol-5-yl)phenyl]-3-pyridinyl]methyl]-2H-imidazol-2-one] registered an IC50 in experiment [1] of 99 nM. The Kb in the experiment on rabbit aortic rings (setting [2]) is 0.912 nM; in the experiment on rabbit aortic rings (setting [3]), 2.51 nM.

In experiment [1], `CCCCn1cc(CCC2CC2)n(Cc2ccc(-c3ccccc3-c3nnn[nH]3)nc2)c1=O` [Example 9, 1-butyl-4-(2-cyclopropylethyl)-1,3-dihydro-3-[[6-[2-(1H-tetrazol-5-yl)phenyl]-3-pyridinyl]methyl]-2H-imidazol-2-one] gave an IC50 of 11 nM. The Kb in the experiment on rabbit aortic rings (setting [2]) is 0.537 nM; with rabbit aortic rings (setting [3]) it was 1.35 nM. Further, the “Assay C Duration” value in the experiment on pressor response to AII was determined as 180 min. Besides, in the experiment with pressor response to AII, testing at 3 mg/kg gave an inhibition in vivo of 10%.

Take `CCCCn1cc(CC(C)C)n(Cc2ccc(-c3ccccc3-c3nnn[nH]3)nc2)c1=O` [Example 4, 1-butyl-4-isobutyl-1,3-dihydro-3-[[6-[2-(1H-tetrazol-5-yl)phenyl]-3-pyridinyl]methyl]-2H-imidazol-2-one]: the IC50 in experiment [1] is 140 nM. Besides, the figures for the Kb in the experiment on rabbit aortic rings (setting [2]) and with rabbit aortic rings (setting [3]) were 19.1 nM and 81.3 nM, respectively.

With `CCCCc1cn(-c2ccccc2OC)c(=O)n1Cc1ccc(-c2ccccc2-c2nnn[nH]2)nc1` [Example 34, 1-(2-methoxyphenyl)-4-butyl-1,3-dihydro-3-[[6-[2-(1H-tetrazol-5-yl)phenyl]-3-pyridinyl]methyl]-2H-imidazol-2-one], in experiment [1], the IC50 was 9 nM.

With `CCCCc1cn(CCc2ccccc2)c(=O)n1Cc1ccc(-c2ccccc2-c2nnn[nH]2)nc1` [Example 26, 1-(2-phenylethyl)-4-butyl-1,3-dihydro-3-[[6-[2-(1H-tetrazol-5-yl)phenyl]-3-pyridinyl]methyl]-2H-imidazol-2-one], the half-inhibitory concentration (IC50) in experiment [1] turned out to be 3.6 nM. Further, the Kb with rabbit aortic rings (setting [2]) was 4.37 nM; with rabbit aortic rings (setting [3]) it was 3.63 nM. Also, in the experiment on pressor response to AII, the “Assay C Duration” value was 180 min. In the experiment with pressor response to AII, this compound registered an inhibition in vivo at 3 mg/kg of 15%.

Regarding `CCCCc1cn(-c2c(C)cccc2C)c(=O)n1Cc1ccc(-c2ccccc2-c2nnn[nH]2)nc1` [Example 38, 1-(2,6-dimethylphenyl)-4-butyl-1,3-dihydro-3-[[6-[2-(1H-tetrazol-5-yl)phenyl]-3-pyridinyl]methyl]-2H-imidazol-2-one], the IC50 in experiment [1] came out at 5 nM.

Turning to `CCCCc1cn(CCC(C)(C)C)c(=O)n1Cc1ccc(-c2ccccc2-c2nnn[nH]2)nc1` [Example 19, 1-(3,3-dimethylbutyl)-4-butyl-1,3-dihydro-3-[[6-[2-(1H-tetrazol-5-yl)phenyl]-3-pyridinyl]methyl]-2H-imidazol-2-one], in experiment [1], the IC50 was found to be 9.2 nM. Besides, the Kb with rabbit aortic rings (setting [2]) is 3.72 nM. Also, the Kb in the experiment on rabbit aortic rings (setting [3]) is 4.37 nM. In the experiment with pressor response to AII, the “Assay C Duration” value was more than 180 min and 3 mg/kg produced 50% inhibition in vivo.
